The test system of one data set is mouse spleenocytes. As to the kind of experiment: Cytotoxic activity (MTT) against mouse spleenocytes. In kind it is cell-based. On the procedure:
(§1) The spleenocytes from CD-1 line mice were used. The spleen was isolated from mice and homogenized. The spleenocytes were washed thrice and resuspended with RPMI-1640 medium contained gentamicine 8 μg/mL (Biolot, Saint Petersburg, Russia). The museum tetraploid strain of murine ascites Ehrlich carcinoma cells from the All-Russian cancer center RAMS (Moscow, Russia) was used. The cells of the ascites Ehrlich carcinoma were separated from ascites, which were collected on day 7 after inoculation in mouse CD-1 line. The cells were washed of ascites thrice and then resuspended in liquid media DMEM with L-Glutamine (Biolot, Saint Petersburg, Russia).
(§2) The solutions of tested substances in different concentrations (20 µL) and cell suspension (200 µL) were added in wells of 96-well plate and incubated over night at 37 °C and 5% CO2. After incubation the cells were sedimented by centrifugation, 200 µL of medium from each well were collected and 100 µL of pure medium were added. Then 10 µL of MTT solution […] (Sigma, St. Louis, MO, USA) were added in each well. Plate was incubated 4 h, after that 100 µL SDS-HCl were added to each well and plate was incubated at 37 °C 4–18 h. Optical density was measured at 570 nm and 630–690 nm. The activity of the substances was calculated as the ratio of the dead cells to general cells amount (ED50). Typicoside A1 [28] and cucumarioside A2-2 [11] were used as positive controls.

In data set [1] the test system is ascites form of mouse Ehrlich carcinoma cells. As to the kind of experiment: Cytotoxic activity (MTT) against the ascites form of mouse Ehrlich carcinoma cells. In kind it is cell-based. As to conditions: ascites form of mouse Ehrlich carcinoma cells, MTT, incubated over night. On the procedure: as §1, §2
The test system of a further data set is mouse erythrocytes. In kind it is cell-based. On the procedure:
The erythrocytes were washed thrice with 0.9% NaCl, centrifuged (450 g) on a centrifuge […] (Heraeus, Hanau, Germany) for 5 min followed by re-suspending in phosphate-buffered saline (PBS), pH 7.2-7.4. […] ED50 was calculated using SigmaPlot 3.02 software (Jandel Scientific, San Rafael, CA, USA). […] The erythrocyte suspension in phosphate-buffered saline, pH 7.2-7.4 (PBS) with 20 μL of the solvent without a tested compound was used as negative control.

A short description of data set [2]: Cytotoxic activity (MTT) against mouse spleenocytes. In kind it is cell-based. The following applies: CD-1, mouse. On the procedure:
as §1, §2

Data set [3] is described as follows: Cytotoxic activity (MTT) against the ascites form of mouse Ehrlich carcinoma cells. In kind it is cell-based. The following applies: mouse. On the procedure: as §1, §2
Data set [4] concerns human colorectal adenocarcinoma DLD-1 cells. In words: Cytotoxicity against DLD-1 cells (MTS assay). In kind it is cell-based. On the procedure: Human colorectal adenocarcinoma cells DLD-1 were cultured in RPMI-1640 medium. Culture media was supplemented with 10% fetal bovine serum (FBS) and penicillin—streptomycin solution. Cells were maintained in a sterile environment and kept in an incubator at 5% CO2 and 37 °C to promote growth. DLD-1 cells were sub-cultured every 3–4 days by their rinsing with phosphate buffered saline (PBS), adding trypsin to detach the cells from the tissue culture flask, and transferring 10–20% of the harvested cells to a new flask containing fresh growth media.
DLD-1 cells (1.0 × 10^4/well) were seeded in 96-well plates for 24 h at 37 °C in 5% CO2 incubator. The cells were treated with the compounds 1–9 at concentrations range from 0 to 100 µM for additional 24 h. Subsequently, cells were incubated with 15 µL MTS reagent for 3 h, and the absorbance of each well was measured at 490/630 nm using microplate reader “Power Wave XS” (Bio Tek, Winooski, VT, USA). All the experiments were repeated three times, and the mean absorbance values were calculated. The results are expressed as the percentage of inhibition that produced a reduction in absorbance by compound’s treatment compared to the non-treated cells (control).
On the technique in general: Tetrazolium dyes change colour on reduction, which living cells bring about.

Data set [5] relates to human lung carcinoma A549 cells. Set-up: method as in PMID 25738799. The following applies: cited from earlier work.
Data set [6] concerns human lung carcinoma H1299 cells. Set-up: method as in PMID 25738799. As to conditions: cited from earlier work.
Data set [7] has as its system Lewis lung carcinoma cell xenograft tumor. Also on record: method as in PMID 25738799. As to conditions: C57BL/6 mice bearing a Lewis lung carcinoma cell xenograft tumor; cited from earlier work.

The IC50 is the point on the concentration scale where inhibition reaches its midpoint.

Structures can show the parent of a compound that is named as a salt. Some results are limits rather than exact numbers.

For `C=C(C)CCCC1(C)OC(=O)C23CCC4C(=CCC5C(C)(C)C(OC6OCC(OS(=O)(=O)[O-])C(O)C6OC6OC(C)C(OC7OC(CO)C(O)C(OC8OC(CO)C(O)C(OC)C8O)C7O)C(O)C6OC6OCC(O)C(O)C6O)CCC45C)C2(C)CC(=O)C13.[Na+]` (stereo not drawn) [Cucumarioside A2-2, reference compound], the IC50 in the data set with mouse spleenocytes (CD-1 mouse spleenocytes, MTT, incubated over night) stood at 1.21 ± 0.02 µM; in data set [1] it was 1.39 ± 0.015 µM. The “Hemolytic Activity, ED50” value in the data set on mouse erythrocytes (CD-1 mouse erythrocytes, 1 h at 37 °C, dose causing 50% of hemolysis) was found to be 0.82 ± 0.02 μM/mL.

Take `CC1OC(OC2C(OC3CCC4(C)C5CCC67C(=O)OC(CC6(C)C5=CCC4C3(C)C)C7C3(C)CCC(C(C)(C)O)O3)OCC(OS(=O)(=O)O)C2O)C(O)C(O)C1O` [Compound 1, 3β-O-[β-D-quinovopyranosyl-(1→2)-4-O-sodium sulfate-β-D-xylopyranosyl]-9βH,20(S),24(S)-epoxy-25-hydroxylanosta-7-ene-18(16)-lactone]: the “Cytotoxic action against spleenocytes (in words)” value in the data set on mouse spleenocytes (up to the ultimate investigated concentration of 100 μM) is “inactive”. Besides, the IC50 was more than 100 µM in data set [2]; more than 100 µM in [3]; more than 100 µM in [4] (Homo sapiens, DLD-1, read-out: IC50 (50% reduction in cell viability), DLD-1 cells, 24 h, 0–100 µM). Moreover, the “Cytotoxic effect against DLD-1 cells (in words)” value in data set [4] (0–100 µM, 24 h) was “did not possessed cytotoxic effect”. Also, in the data set on mouse erythrocytes (mouse erythrocytes), the “Hemolytic action (in words)” value is “inactive”.

As for `CC(C)=CCC[C@](C)(O)[C@H]1CC[C@]2(C)[C@@H]1[C@H](O)C[C@@H]1[C@@]3(C)CC[C@H](O[C@@H]4O[C@H](CO)[C@@H](O)[C@H](O)[C@H]4O[C@@H]4O[C@H](CO)[C@@H](O)[C@H](O)[C@H]4O)C(C)(C)[C@@H]3CC[C@]12C` [ginsenoside Rg3], the “Sensitization to γ-radiation (in words)” value in data set [5] and in [6] was “sensitized” each time. For the same compound, the “Efficacy of radiation therapy (in words)” value in data set [7] is recorded as “significantly enhanced the efficacy of radiation therapy”.

(Values after PMC5577610, “Nine New Triterpene Glycosides, Magnumosides A1–A4, B1, B2, C1, C2 and C4, from the Vietnamese Sea Cucumber Neothyonidium (=Massinium) magnum: Structures and Activities against Tumor Cells Independently and in Synergy with Radioactive Irradiation” (Marine Drugs, 2017).)
